Experimental data from patent US20210024545A1, “SUBSTITUTED DIAZAHETERO-BICYCLIC COMPOUNDS AND THEIR USE” (Bayer Aktiengesellschaft, priority 2016, published 2021).

Key:
human TASK-1 = human TASK-1 (Homo sapiens, UniProt O14649); assay: Inhibition of recombinant TASK-1 in stably transfected CHO cells, KCl-induced depolarization, voltage-sensitive dye (B-2); format: cell-based; set-up: expressed in transfected cells; host or cells: stably transfected CHO cells; settings: depolarization induced by 40 mM potassium chloride, some mean values from multiple determinations
Sequence of human TASK-1 (O14649 whole entry): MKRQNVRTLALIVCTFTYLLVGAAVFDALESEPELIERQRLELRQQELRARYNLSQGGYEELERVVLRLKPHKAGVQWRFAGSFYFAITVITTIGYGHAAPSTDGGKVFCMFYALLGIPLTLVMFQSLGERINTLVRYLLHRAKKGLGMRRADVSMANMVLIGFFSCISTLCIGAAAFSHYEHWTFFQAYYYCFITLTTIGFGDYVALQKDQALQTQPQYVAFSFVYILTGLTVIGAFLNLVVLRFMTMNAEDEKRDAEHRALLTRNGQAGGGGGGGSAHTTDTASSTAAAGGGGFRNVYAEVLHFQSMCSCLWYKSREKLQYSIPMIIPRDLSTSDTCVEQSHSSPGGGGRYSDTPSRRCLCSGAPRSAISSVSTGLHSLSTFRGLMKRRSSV
Method in brief: (§1)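 Stably transfected CHO cells loaded with a voltage-sensitive membrane potential dye. Depolarization was induced with 40 mM KCl, and compound inhibition of it was read by fluorescence. IC50 is the concentration blocking half of the KCl-induced depolarization; some values are means of multiple independent determinations.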

human TASK-3 = human TASK-3 (Homo sapiens, UniProt Q9NPC2); assay: Inhibition of recombinant TASK-3 in stably transfected CHO cells, KCl-induced depolarization, voltage-sensitive dye (B-2); format: cell-based; set-up: expressed in transfected cells; host or cells: stably transfected CHO cells; settings: depolarization induced by 40 mM potassium chloride, some mean values from multiple determinations
Sequence of human TASK-3 (Q9NPC2 whole entry): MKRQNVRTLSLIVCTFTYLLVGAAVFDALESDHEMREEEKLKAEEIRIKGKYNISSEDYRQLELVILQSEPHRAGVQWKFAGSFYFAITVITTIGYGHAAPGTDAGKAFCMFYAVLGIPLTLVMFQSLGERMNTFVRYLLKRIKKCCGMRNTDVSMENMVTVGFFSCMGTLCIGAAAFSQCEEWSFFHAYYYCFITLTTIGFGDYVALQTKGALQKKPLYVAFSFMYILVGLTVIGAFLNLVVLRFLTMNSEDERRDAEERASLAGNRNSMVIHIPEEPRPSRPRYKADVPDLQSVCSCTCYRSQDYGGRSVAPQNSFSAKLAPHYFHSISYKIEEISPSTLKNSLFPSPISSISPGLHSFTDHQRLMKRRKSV
Method in brief: as §1

| Compound | IC50 (human TASK-1) [nM] | IC50 (human TASK-3) [nM] |
| --- | --- | --- |
| COc1ccc(Cl)c(C(=O)N2CC3CCC2CN3Cc2c(-c3ccc(Cl)cn3)nc3ccccn23)n1 (single isomer, unassigned; enantiomer 1) [Example 25, (3-Chloro-6-methoxypyridin-2-yl)(5-{[2-(5-chloropyridin-2-yl)imidaz[1,2-a]pyridin-3-yl]methyl}-2,5-diazabicyclo[2.2.2]oct-2-yl)methanone (enantiomer 1)] | 120 | 5.6 |
| COc1cccc(C(=O)N2CC3CCC2CN3Cc2c(-c3ccc(Cl)cc3)nc3ccccn23)c1 (single isomer, unassigned) [Example 39] | 640 | 370 |
| COc1ccc(Cl)c(C(=O)N2CC3CCC2CN3Cc2c(-c3ccc(Br)cc3)nc3ccccn23)n1 (racemic) [Example 199, (5-{[2-(4-Bromophenyl)imidazo[1,2-a]pyridin-3-yl]methyl}-2,5-diazabicyclo[2.2.2]oct-2-yl)(3-chlor-6-methoxypyridin-2-yl)methanone(racemate)] | 33 | 1.8 |
| O=C(N1CCCC1)N1C2COCC1CN(Cc1c(-c3ccc(Cl)cc3)nc3ccccn13)C2 [Example 192, (7-{[2-(4-Chlorophenyl)imidazo[1,2-a]pyridin-3-yl]methyl}-3-oxa-7,9-diazabicyclo[3.3.l]non-9-yl)(pyrrolidin-1-yl)methanone] | 870 | 73 |
| COc1cccc(C(=O)N2C3CCC2CN(Cc2c(-c4ccc(Cl)cn4)nc4ccccn24)C3)c1 [Example 112] | 200 | 29 |
| O=C(c1ccccc1F)N1C2CCC1CN(Cc1c(-c3ccc(Br)cc3)nc3ccccn13)C2 [Example 97] | 390 | 7.8 |
| CC(C)NC(=O)N1C2CCC1CN(Cc1c(-c3ccc(Cl)cc3)nc3ccccn13)C2 [Example 154, 3-{[2-(4-Chlorophenyl)imidazo[1,2-a]pyridin-3-yl]methyl}-N-isopropyl-3,8-diazabicyclo[3.2.1]octane-8-carboxamide] | 130 | 29 |
| O=C(c1cccc(OC(F)(F)F)n1)N1C2COCC1CN(Cc1c(-c3ccc(Cl)cc3)nc3ccccn13)C2 [Example 80] | 310 | 15 |
| CCN(C(=O)N1C2COCC1CN(Cc1c(-c3ccc(Cl)cc3)nc3ccccn13)C2)C1CCCCC1 [Example 191, 7-{[2-(4-Chlorophenyl)imidazo[1,2-a]pyridin-3-yl]methyl}-N-cyclohexyl-N-ethyl-3-oxa-7,9-diazabicyclo[3.3.1]nonane-9-carboxamide] | 9500 | 190 |
| COc1ccc(C)c(C(=O)N2C3CCC2CN(Cc2c(-c4ccc(C(C)C)cc4)nc4ccccn24)C3)n1 [Example 145, (3-{[2-(4-Isopropylphenyl)imidazo[1,2-a]pyridin-3-yl]methyl}-3,8-diazabicyclo[3.2.1]oct-8-yl)(6-methoxy-3-methylpyridin-2-yl)methanone] | 280 | 27 |
| O=C(c1cccc(OCC(F)(F)F)n1)N1C2COCC1CN(Cc1c(-c3ccc(Cl)cc3)nc3ccccn13)C2 [Example 77] | 810 | 44 |
| COc1ccc(F)cc1C(=O)N1C2COCC1CN(Cc1c(-c3ccc(Cl)cc3)nc3ccccn13)C2 [Example 75] | 380 | 30 |
| Cc1ccc(F)cc1C(=O)N1CC2CCC(C1)N2Cc1c(-c2ccc(Cl)cc2)nc2ccccn12 [Example 88] | 766 | 210 |
| CCN(C(=O)N1C2CCC1CN(Cc1c(-c3ccc(Cl)cc3)nc3ccccn13)C2)C1CCCCC1 [Example 175, 3-{[2-(4-Chlorophenyl)imidazo[1,2-a]pyridin-3-yl]methyl}-N-cyclohexyl-N-ethyl-3,8-diazabicyclo[3.2.1]octane-8-carboxamide] | 43 | 200 |
| CC(C)(C)OC(=O)N1CC2CCC1CN2Cc1c(-c2ccc(Cl)cc2)nc2ccccn12 (single isomer, unassigned) [Example 15, tert-Butyl 5-{[2-(4-chlorophenyl)imidazo[1,2-a]pyridin-3-yl]methyl}-2,5-diazabicyclo[2.2.2]octane-2-carboxylate] | 397 | 82 |
